# Laboratory results as given in PMC9343605, “Structural insights into ligand recognition and selectivity of somatostatin receptors” (Cell Research, 2022).
# Columns and labels:
# [1] = biological target: T1, SSTR4 (Homo sapiens, UniProt P31391, Q279A); experiment: cAMP accumulation assay (agonist-induced inhibition of forskolin-stimulated cAMP), SSTR4, HEK293F; assay type: cell-based; set-up: expressed in transfected cells; host or cells: HEK293F; conditions: SSTR4 mutant Q279^6.55A; mean ± SEM;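 further: transiently transfected cells incubated 40 min at room temperature with 4 µM forskolin and graded ligand, cAMP read by LANCE Ultra TR-FRET kit, values normalized to WT receptor per ligand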
# T1 sequence (P31391 whole entry Q279A): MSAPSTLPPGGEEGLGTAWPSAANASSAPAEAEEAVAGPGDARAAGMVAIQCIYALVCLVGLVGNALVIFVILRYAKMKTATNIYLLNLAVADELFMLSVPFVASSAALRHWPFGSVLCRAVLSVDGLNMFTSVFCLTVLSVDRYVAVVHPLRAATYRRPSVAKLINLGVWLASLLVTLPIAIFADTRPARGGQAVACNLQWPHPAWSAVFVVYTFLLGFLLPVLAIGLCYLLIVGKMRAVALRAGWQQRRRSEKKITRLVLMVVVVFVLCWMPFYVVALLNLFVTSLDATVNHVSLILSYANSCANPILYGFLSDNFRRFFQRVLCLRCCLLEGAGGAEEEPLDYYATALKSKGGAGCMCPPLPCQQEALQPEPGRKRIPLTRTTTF
# Experimental: (§2) HEK293F cells were transiently transfected with WT or mutant SSTR2/SSTR4 using transfection reagent (PEI MAX 2000, Polysciences) and incubated at 37 °C in 5% CO2. Forty-eight hours after transfection, cells were centrifuged and resuspended in stimulation buffer (Hanks’ balanced salt solution (HBSS) supplemented with 5 mM HEPES, 0.5 mM IBMX and 0.1% (w/v) bovine serum albumin (BSA), pH 7.4) to a density of 200,000 cells/mL and added to 384-well white plates (PerkinElmer, 1000 cells/well). cAMP accumulation was measured by a LANCE Ultra cAMP kit (PerkinElmer) according to the manufacturer’s instructions. In brief, transfected cells were incubated for 40 min in stimulation buffer with 2.5 μL forskolin (SSTR2: 2 μM; SSTR4: 4 μM) and gradient concentration of ligand at RT. The reactions were stopped by addition of lysis buffer containing 5 μL Eu-cAMP tracer and 5 μL ULight-anti-cAMP. Plates were then incubated for 60 min at RT and time-resolved FRET signals were measured at 620 nm and 665 nm by an EnVision multilabel plate reader (PerkinElmer). Data were analyzed in GraphPad PRISM 8 and all values were normalized to the WT for each ligand. All outcomes were repeated at least three times.
# (§3) aMutants represent that mutations were introduced separately into the WT receptors and
# (§4) transiently expressed in HEK 293F cells.
# (§5) bThe EC50 ratio was shown as EC50(mutant)/EC50(WT), indicating the shift between the WT
# (§6) and mutant curves, reflecting the effect of the mutations on receptor signaling.
# (§7) cData are shown as mean ± S.E.M. from at least three independent experiments
# (§8) performed in technical triplicate. One-way ANOVA was performed followed by
# (§9) Dunnett’s post-test and compared with WT. The P value was defined as: *P<0.05;
# (§10) d The span is defined as the window between the maximal agonists response (Emax) and
# (§11) e Sample size; the number of independent experiments performed in technical triplicate.
# (§12) f Receptor expression level of HEK 293F cells was determined independently by flow
# (§13) cytometry with anti-FLAG antibody and shown as per cent compared to the WT.
# [2] = biological target: T2, SSTR4 (Homo sapiens, UniProt P31391, V264F); experiment: as above; assay type: cell-based; set-up: expressed in transfected cells; host or cells: HEK293F
# T2 sequence (P31391 1-328 V264F): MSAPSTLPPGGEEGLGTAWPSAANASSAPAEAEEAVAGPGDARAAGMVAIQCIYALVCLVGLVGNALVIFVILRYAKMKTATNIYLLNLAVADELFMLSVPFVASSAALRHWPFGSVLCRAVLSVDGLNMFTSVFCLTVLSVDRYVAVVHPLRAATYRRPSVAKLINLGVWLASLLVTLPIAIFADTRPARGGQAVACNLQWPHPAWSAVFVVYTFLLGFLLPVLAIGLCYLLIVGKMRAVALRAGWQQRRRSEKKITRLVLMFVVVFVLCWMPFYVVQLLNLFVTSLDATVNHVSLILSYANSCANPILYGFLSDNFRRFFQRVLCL
# Experimental: as §2, §3, §4, §5, §6, §7, §8, §9, §10, §11, §12, §13
# [3] = biological target: T3, SSTR4 (Homo sapiens, UniProt P31391, Y301A); experiment: as above; assay type: cell-based; set-up: expressed in transfected cells; host or cells: HEK293F; conditions: SSTR4 mutant Y301^7.43A; mean ± SEM
# T3 sequence (P31391 whole entry Y301A): as the sequence (P31391 whole entry Q279A) above, with A279Q, Y301A counted along it
# Experimental: as §2, §3, §4, §5, §6, §7, §8, §9, §10, §11, §12, §13
# [4] = biological target: T4, SSTR4 (Homo sapiens, UniProt P31391, L123A); experiment: as above; assay type: cell-based; conditions: SSTR4 mutant L123^3.29A; mean ± SEM
# T4 construct: expressed in transfected cells; host or cells: HEK293F
# T4 sequence (P31391 whole entry L123A): as the sequence (P31391 whole entry Q279A) above, with L123A, A279Q counted along it
# Experimental: as §2, §3, §4, §5, §6, §7, §8, §9, §10, §11, §12, §13
# [5] = test system: SSTR4; experiment: as above; assay type: cell-based, human; conditions: for EC50 ratio: EC50(mutant)/EC50(WT)
# Experimental: as §2, §3, §4, §5, §6, §7, §8, §9, §10, §11, §12, §13
# [6] = biological target: T5, SSTR4 (Homo sapiens, UniProt P31391, N282A); experiment: as above; assay type: cell-based; conditions: SSTR4 mutant N282^6.58A; mean ± SEM
# T5 construct: expressed in transfected cells; host or cells: HEK293F
# T5 sequence (P31391 whole entry N282A): as the sequence (P31391 whole entry Q279A) above, with A279Q, N282A counted along it
# Experimental: as §2, §3, §4, §5, §6, §7, §8, §9, §10, §11, §12, §13
# [7] = biological target: T6, SSTR4 (Homo sapiens, UniProt P31391, V103L); experiment: as above; assay type: cell-based; conditions: SSTR4 mutant V103^2.60L; mean ± SEM
# T6 construct: expressed in transfected cells; host or cells: HEK293F
# T6 sequence (P31391 whole entry V103L): as the sequence (P31391 whole entry Q279A) above, with V103L, A279Q counted along it
# Experimental: as §2, §3, §4, §5, §6, §7, §8, §9, §10, §11, §12, §13
# [8] = biological target: T7, SSTR4 (Homo sapiens, UniProt P31391, N293A); experiment: as above; assay type: cell-based; conditions: SSTR4 mutant N293^7.35A; mean ± SEM
# T7 construct: expressed in transfected cells; host or cells: HEK293F
# T7 sequence (P31391 whole entry N293A): as the sequence (P31391 whole entry Q279A) above, with A279Q, N293A counted along it
# Experimental: as §2, §3, §4, §5, §6, §7, §8, §9, §10, §11, §12, §13
# [9] = biological target: T8, SSTR4 (Homo sapiens, UniProt P31391, F211A); experiment: as above; assay type: cell-based; conditions: SSTR4 mutant F211^5.38A; mean ± SEM
# T8 construct: expressed in transfected cells; host or cells: HEK293F
# T8 sequence (P31391 whole entry F211A): as the sequence (P31391 whole entry Q279A) above, with F211A, A279Q counted along it
# Experimental: as §2, §3, §4, §5, §6, §7, §8, §9, §10, §11, §12, §13
# [10] = biological target: T9, SSTR4 (Homo sapiens, UniProt P31391, L297A); experiment: as above; assay type: cell-based; conditions: SSTR4 mutant L297^7.39A; mean ± SEM
# T9 construct: expressed in transfected cells; host or cells: HEK293F
# T9 sequence (P31391 whole entry L297A): as the sequence (P31391 whole entry Q279A) above, with A279Q, L297A counted along it
# Experimental: as §2, §3, §4, §5, §6, §7, §8, §9, §10, §11, §12, §13
# [11] = test system: SSTR4; conditions: SSTR4 selective agonist; cited from earlier work
# From the text: (§1) Along with increased knowledge of the pharmacological effects of these receptors, medical application of SST and its analogs has expanded. A considerable amount of effort has been made to develop new therapeutics for oncology of SSTRs. […] It was found recently that radiolabeled SSTR antagonists produced superi ...
# [12] = biological target: SSTR4 (Homo sapiens, UniProt P31391, F275A); experiment: Whole cell binding assay, SSTR4, competition with 125I-Tyr11-SST14, CHO-K1; set-up: expressed in transfected cells; conditions: SSTR4 mutant F275^6.51A; mean ± SEM
# Chain of SSTR4 (Homo sapiens, UniProt P31391, F275A) (P31391 whole entry F275A): as the sequence (P31391 whole entry Q279A) above, with F275A, A279Q counted along it
# Experimental: (§14) For SSTR2 and SSTR4, CHO-K1 cells were cultured in F12 medium with 10% FBS and seeded at a density of 30,000 cells/well in Isoplate-96 plates (PerkinElmer). Twenty-four hours after transfection with the WT or mutant SSTR2/SSTR4, CHO-K1 cells were washed twice and incubated with blocking buffer (F12 supplemented with 25 mM HEPES and 0.1% (w/v) BSA, pH 7.4) for 2 h at 37 °C. […] Following incubation, cells were washed three times with ice-cold PBS and lysed by 50 μL lysis buffer (PBS supplemented with 20 mM Tris-HCl, 1% Triton X-100, pH 7.4). The radioactivity was subsequently counted (counts/min, CPM) in a scintillation counter (MicroBeta[2] Plate Counter, PerkinElmer) using a scintillation cocktail (OptiPhaseSuperMix, PerkinElmer). Data were analyzed by nonlinear regression using GraphPad PRISM 8.
# (§15) aMutants represent that all mutations were introduced separately into the WT receptors
# and expressed in CHO K1 cells.
# (§16) bThe IC50 ratio was shown as IC50(mutant)/IC50(WT), indicating the shift between the WT
# (§17) and mutant curves, reflecting the effect of the mutations on ligand binding.
# (§18) cData are shown as mean ± S.E.M. form at least three independent experiments
# as §8
# (§19) Dunnett’s post-test and compared with WT.
# as §10, §11
# [13] = biological target: SSTR4 (Homo sapiens, UniProt P31391, Y276A); experiment: as above; set-up: expressed in transfected cells; conditions: SSTR4 mutant Y276^6.52A; mean ± SEM
# Chain of SSTR4 (Homo sapiens, UniProt P31391, Y276A) (P31391 whole entry Y276A): as the sequence (P31391 whole entry Q279A) above, with Y276A, A279Q counted along it
# Experimental: as §14, §15
# and expressed in CHO K1 cells.
# as §16, §17, §18, §8, §19, §10, §11
# [14] = biological target: SSTR4 (Homo sapiens, UniProt P31391, D126A); experiment: as above; set-up: expressed in transfected cells; conditions: SSTR4 mutant D126^3.32A; mean ± SEM
# Chain of SSTR4 (Homo sapiens, UniProt P31391, D126A) (P31391 whole entry D126A): as the sequence (P31391 whole entry Q279A) above, with D126A, A279Q counted along it
# Experimental: as §14, §15
# and expressed in CHO K1 cells.
# as §16, §17, §18, §8, §19, §10, §11
# [15] = biological target: SSTR4 (Homo sapiens, UniProt P31391); experiment: as above; set-up: expressed in transfected cells; conditions: WT SSTR4, mean ± SEM
# Chain of SSTR4 (Homo sapiens, UniProt P31391) (P31391 whole entry): as the sequence (P31391 whole entry Q279A) above, with A279Q counted along it
# Experimental: as §14, §15
# and expressed in CHO K1 cells.
# as §16, §17, §18, §8, §19, §10, §11
# [16] = biological target: T1, SSTR4; experiment: as above; set-up: expressed in transfected cells; conditions: SSTR4 mutant Q279^6.55A; mean ± SEM
# Experimental: as §14, §15
# and expressed in CHO K1 cells.
# as §16, §17, §18, §8, §19, §10, §11
# [17] = biological target: SSTR4 (Homo sapiens, UniProt P31391, M130A); experiment: as above; set-up: expressed in transfected cells; conditions: SSTR4 mutant M130^3.36A; mean ± SEM
# Chain of SSTR4 (Homo sapiens, UniProt P31391, M130A) (P31391 whole entry M130A): as the sequence (P31391 whole entry Q279A) above, with M130A, A279Q counted along it
# Experimental: as §14, §15
# and expressed in CHO K1 cells.
# as §16, §17, §18, §8, §19, §10, §11
# [18] = biological target: T2, SSTR4; experiment: as above; set-up: expressed in transfected cells; conditions: Construct 4 SSTR4, mean ± SEM
# Experimental: as §14, §15
# and expressed in CHO K1 cells.
# as §16, §17, §18, §8, §19, §10, §11
# [19] = biological target: SSTR4 (Homo sapiens, UniProt P31391, T215A); experiment: as above; set-up: expressed in transfected cells; conditions: SSTR4 mutant T215^5.42A; mean ± SEM
# Chain of SSTR4 (Homo sapiens, UniProt P31391, T215A) (P31391 whole entry T215A): as the sequence (P31391 whole entry Q279A) above, with T215A, A279Q counted along it
# Experimental: as §14, §15
# and expressed in CHO K1 cells.
# as §16, §17, §18, §8, §19, §10, §11
# [20] = biological target: SSTR4 (Homo sapiens, UniProt P31391, N199A); experiment: as above; set-up: expressed in transfected cells; conditions: SSTR4 mutant N199^ECL2A; mean ± SEM
# Chain of SSTR4 (Homo sapiens, UniProt P31391, N199A) (P31391 whole entry N199A): as the sequence (P31391 whole entry Q279A) above, with N199A, A279Q counted along it
# Experimental: as §14, §15
# and expressed in CHO K1 cells.
# as §16, §17, §18, §8, §19, §10, §11
# [21] = biological target: T3, SSTR4; experiment: as above; set-up: expressed in transfected cells; conditions: SSTR4 mutant Y301^7.43A; mean ± SEM
# Experimental: as §14, §15
# and expressed in CHO K1 cells.
# as §16, §17, §18, §8, §19, §10, §11
# [22] = test system: growth hormone and glucagon releases; conditions: full agonist; cited from earlier work
# From the text: as §1
smiles,measurement,setting,value
Cc1ccc(S(=O)(=O)N[C@@H](CCN)C(=O)N[C@@H](Cc2ccccc2)C(N)=O)c2ccccc12 [J-2156],Span,[1],98±6 % of WT
same,pEC50 ± SEM,[1],9.57±0.17
same,EC50,"[2]; Construct 4 SSTR4 (V264F, C-terminal truncation)",0.03 nM
same,Span,"[2]; Construct 4 SSTR4, mean ± SEM",106±5 % of WT
same,pEC50 ± SEM,"[2]; Construct 4 SSTR4, mean ± SEM",10.46±0.13
same,Span,[3],64±7 % of WT
same,pEC50 ± SEM,[3],7.02±019
same,Span,[4],61±6 % of WT
same,pEC50 ± SEM,[4],9.49±0.23
same,EC50 ratio,[5]; Construct 4 SSTR4,0.2
same,effect of alanine mutation on agonist potency,[5]; SSTR4 F275^6.51 and Y276^6.52,significant reduction in agonist potency
same,EC50 ratio,[5]; SSTR4 mutant F211^5.38A,33
same,EC50 ratio,[5]; SSTR4 mutant L123^3.29A,2
same,EC50 ratio,[5]; SSTR4 mutant L297^7.39A,137
same,EC50 ratio,[5]; SSTR4 mutant M130^3.36A,4
same,EC50 ratio,[5]; SSTR4 mutant N199^ECL2A,0.3
same,EC50 ratio,[5]; SSTR4 mutant N293^7.35A,3
same,EC50 ratio,[5]; SSTR4 mutant Q279^6.55A,1
same,EC50 ratio,[5]; SSTR4 mutant T215^5.42A,1
same,EC50 ratio,[5]; SSTR4 mutant V103^2.60L,5
same,decrease of potency,[5]; SSTR4 mutant V103^2.60 to leucine,~ 5 fold
same,EC50 ratio,[5]; SSTR4 mutant Y276^6.52A,1016
same,EC50 ratio,[5]; SSTR4 mutant Y301^7.43A,497
same,EC50 ratio,[5]; WT SSTR4,1
same,Span,[6],62±5 % of WT
same,pEC50 ± SEM,[6],9.99±0.21
same,Span,[7],40±4 % of WT
same,pEC50 ± SEM,[7],9.00±0.25
same,Span,[8],87±6 % of WT
same,pEC50 ± SEM,[8],9.30±0.17
same,Span,[9],94±7 % of WT
same,pEC50 ± SEM,[9],8.20±0.17
same,Span,[10],111 ± 8 % of WT
same,pEC50 ± SEM,[10],7.59±0.16
same,pain relief,[11],mediates pain relief
same,Span,[12],11 ± 4 % of WT
same,Span,[13],9±3 % of WT
same,Span,[14],12±3 % of WT
same,pKi ± SEM,[15]; competition with 125I-SST-14,9.21 ± 0.14
same,Span,[15],100±6 % of WT
same,pIC50 ± SEM,[15]; at least three independent experiments,9.21±0.14
same,Span,[16],26±4 % of WT
same,pIC50 ± SEM,[16],8.93±0.38
same,Span,[17],12±4 % of WT
same,pKi ± SEM,[18]; competition with 125I-SST-14,9.47
same,Span,[18],96±9 % of WT
same,pIC50 ± SEM,[18],9.47±0.25
same,Span,[19],67±4 % of WT
same,pIC50 ± SEM,[19],9.08±0.16
same,Span,[20],13±3 % of WT
same,Span,[21],15±5 % of WT
"C[C@@H](c1c[nH]c2ccccc12)[C@@H](NC(=O)N1CCC(n2c(=O)[nH]c3ccccc32)CC1)C(=O)N[C@@H](CCCCN)C(=O)OC(C)(C)C [L-054,522]",effect on growth hormone and glucagon releases,[22],inhibitory effect on growth hormone and glucagon releases
